In patent publication US11953435B2, “Zinc-responsive fluorophores” (Northwestern University, priority 2019, dated 2024):
Several values for one entry are separate records, joined by “and”; a condition that tells them apart may be missing. Identical values can stand only once. Entries after “also recorded” stand apart in the source; their conditions may differ.

Key:
[1] = Metal ion response / selectivity of fluorescence; conditions: for metal ions that inhibit the zinc response: other metal ions in the presence of excess zinc; for fluorescence response to toxic metals (Cd, Hg, Pb): relative fluorescence intensity; for metal ions to which the probe does not respond: relative fluorescence intensity in the presence of other metal ions
Description: (§1) Aqueous solutions were prepared by using de-ionized water with resistivity […], obtained using a Milli-Q water purification system. In order to properly compare the photophysical properties of ZincBY-2, ZincBY-3, and ZincBY-4 to ZincBY-1, the photophysical properties of ZincBY-1 we remeasured. […] Stock solutions of ZincBY-1, ZincBY-2, ZincBY-3, and ZincBY-4 were prepared at concentrations of 5 mM and stored at −20° C. in aliquots that were used immediately after thawing for each experiment. Unless otherwise stated, all spectroscopic methods were conducted in aqueous buffer containing 50 mM HEPES (pH 7.2) and 0.1 M KNO3. UV-visible spectra were acquired on a PerkinElmer Lambda 650 UV/Vis spectrophotometer using quartz cuvettes from Starna (1 cm path length, 10 cm path length used in extinction coefficient and quantum yield determination). Fluorescence spectra were acquired using a PerkinElmer LS 55 fluorescence spectrophotometer. For measurements containing zinc, 99.0% ZnNO3 hexahydrate (final concentration 5 μM) was used. For experiments analyzing apo probes, N,N,N′,N′-Tetrakis(2-pyridylmethyl)ethylenediamine (TPEN) (final concentration 5 μM) was added to solution. Quantum Yield and Extinction Coefficient Determination. Quantum yields for apo and holo ZincBY-1, ZincBY-2, ZincBY-3, and ZincBY-4 were determined by plotting absorbance vs. fluorescence intensity of solutions containing ZincBY-1, ZincBY-2, ZincBY-3, or ZincBY-4 at probe concentrations ranging from 50-250 nM. Serial dilution was used to make solutions at different concentrations. Fluorescein dissolved in 0.1 N NaOH was used as the quantum yield standard, using a literature-determined quantum yield of 0.95.^3 For all fluorophore solutions, fluorescence excitation was set at 490 nm and fluorescence emission was integrated from 510 nm to 650 nm. Zinc Dissociation Constant. Fluorescence spectra were recorded using zinc probes (ZincBY-1, ZincBY-2, ZincBY-3, or ZincBY-4; 200 nM) and ZnSO4 (various concentrations). The solutions were equilibrated in the dark for 1 h prior to measurement. The concentration of ZnSO4 was varied from 1 μM to 9 mM in buffer solution (50 mM HEPES and 0.1 M KNO3, and pH 7.2) containing 10 mM EGTA. Free Zn^2+ was calculated according to a previously reported method (Ref. B4; incorporated by reference in its entirety). Data was fit to the following one-site binding equation: F=(FminKd+Fmax[Zn^2+])/(Kd+[Zn^2+]) pH Response. The fluorescence spectra of zinc probes (ZincBY-2, ZincBY-3, or ZincBY-4; 200 nM) wasere measured at various pH values (4.5-11). The following buffers were used at 50 mM concentration with 0.1 M KNO3: NaOAc/AcOH (pH 4.0-4.5), MES (pH 5.0-6.5), HEPES (pH 7.0-8.0), CHES (pH 8.5-9.5), CAPS (pH 10.0-11.0). Metal Ion Response. The fluorescence spectra of zinc probes (ZincBY-2, ZincBY-3, or ZincBY-4; 200 nM) were measured in the presence an excess of metal ion including 1 mM KNO3, 1 mM NaNO3, 1 mM CaSO4, 1 mM MgSO4, 15 μM MnSO4, 15 μM (NH4)2Fe(SO4)2, 15 μM NH4Fe(SO4)2, 15 μM CoSO4, 15 μM NiSO4, 15 μM CuSO4, 15 μM [Cu(CH3CN)4]PF6, 15 μM CdSO4, 15 μM Hg(NO3)2, 15 μM Pb(NO3)2, or 15 μM ZnSO4. The fluorescence spectra were compared to that of ZincBY-2 (200 nM), ZincBY-3 (200 nM), or ZincBY-4 (200 nM) in the presence of 10 μM TPEN. Determination of octanol-water partition coefficients (log P). A log P value for each probe was determined by agitating nanomolar solutions of each probe in a 1:1 mixture of HEPES buffer and 1-octanol. Solutions were allowed to settle for 1 h and then the fluorescence intensity of each phase was measured. Standard curves of the fluorescence of known concentrations of probes in both solutions were used to determine concentrations.

[2] = pH response of fluorescence; type: physicochemical; conditions: for pH-dependent fluorescence changes: holo and apo forms, physiological pH range (pH 4-8); for fluorescence changes of the Apo probe with pH: Apo (TPEN); for fluorescence changes of the Apo probe with pH / pH range in which fluorescence of the Zn-bound probe is stable: buffers at various pHs
Description: as §1

[3] = Photophysical properties in aqueous buffer (UV-visible, fluorescence, quantum yield, extinction coefficient); type: physicochemical; conditions: for λAbs (max) / λEm (max): aqueous buffer pH 7.2; for Extinction Coefficient (ε) / Quantum Yield (Φ): 50 nM to 250 nM probe; for fluorescence turn-on in the presence of zinc: aqueous buffered solutions; for turn-on ratio / increase in brightness in response to zinc: holo vs apo
Description: as §1

[4] = remeasured, same as originally reported, state not specified

Row | SMILES | preference for Zn(II) over other biologically relevant metal ions [1] | pH-dependent fluorescence changes [2] | Brightness (ε*Φ/1000) ([3]; Apo) | λAbs (max) ([3]; Apo (TPEN)) [nm] | Extinction Coefficient (ε) ([3]; Apo) | Quantum Yield (Φ) ([3]; Apo) | λEm (max) ([3]; Apo) [nm] | Brightness (ε*Φ/1000) ([3]; Zn-bound) | Extinction Coefficient (ε) ([3]; Zn-bound) | Quantum Yield (Φ) ([3]; Zn-bound) | λAbs (max) ([3]; Zn-bound) [nm] | λEm (max) ([3]; Zn-bound) [nm] | fluorescence turn-on in the presence of zinc [3] | turn-on ratio / increase in brightness in response to zinc [3] | metal ions that inhibit the zinc response [1] | fluorescence response to toxic metals (Cd, Hg, Pb) [1] | metal ions to which the probe does not respond [1] | fluorescence changes of the Apo probe with pH [2] | pH range in which fluorescence of the Zn-bound probe is stable [2] | also measured
1 | COc1ccc2n1[B-](F)(F)[N+]1=C(N(CCN(Cc3ccccn3)Cc3ccccn3)Cc3ccccn3)C=CC1=C2c1c(C)cc(C)cc1C [ZincBY-1, reference compound] | responds preferentially to Zn(II) relative to other biologically relevant metal ions | neither the holo or apo forms of ZincBY-1 and ZincBY-4 show significant changes in fluorescence | 5.21(72) M^−1cm^−1 | 529 | 2.42(33) × 10^4 M^−1cm^−1 | 0.215(5) | 559 | 26.97(2.30) M^−1cm^−1 | 4.14(33) × 10^4 M^−1cm^−1 | 0.651(18) and 0.651(2) | 532 | 543 | 5.2 | ca. 5 fold |  |  |  |  |  | higher brightness on remeasurement compared to the originally reported values ([3]; both apo and holo states): 10 fold; absorption wavelength [3, 4]: 533 nm; emission wavelength [3, 4]: 543 nm
2 | Cc1cc(C)c(C2=C3C=CC(OCCN=[N+]=[N-])=[N+]3[B-](F)(F)n3c2ccc3N(CCN(Cc2ccccn2)Cc2ccccn2)Cc2ccccn2)c(C)c1 [ZincBY-2, N1-(7-(2-azidoethoxy)-5,5-difluoro-10-mesityl-5H-4λ4,5λ4-dipyrrolo[1,2-c:2′,1′-f][1,3,2]diazaborinin-3-yl)-N1,N2,N2-tris(pyridin-2-ylmethyl)ethane-1,2-diamine] |  |  | 2.35(58) M^−1cm^−1 | 532 | 1.42(35) × 10^4 M^−1cm^−1 | 0.164(7) | 566 | 13.58(1.93) M^−1cm^−1 | 2.57(35) × 10^4 M^−1cm^−1 | 0.529(22) | 532 | 552 |  |  | does not fluoresce in the presence of Cu(I) and Cu(II), and these ions inhibit the zinc response | exhibits an increase in fluorescence in response to toxic metals Cd and Hg, but does not respond to Pb | does not respond to changes in K, Na, Ca, Mg, Mn, Fe, Co, or Ni concentration | largely unaffected by changes in pH | 4.5-8.0 pH | 
3 | Cc1cc(C)c(C2=C3C=CC(OCCN)=[N+]3[B-](F)(F)n3c2ccc3N(CCN(Cc2ccccn2)Cc2ccccn2)Cc2ccccn2)c(C)c1 [ZincBY-3, N1-(7-(2-aminoethoxy)-5,5-difluoro-10-mesityl-5H-4λ4,5λ4-dipyrrolo[1,2-c:2′,1′-f][1,3,2]diazaborinin-3-yl)-N1,N2,N2-tris(pyridin-2-ylmethyl)ethane-1,2-diamine] |  |  | 1.85(8) M^−1cm^−1 | 571 | 1.16(4) × 10^4 M^−1cm^−1 | 0.158(3) | 585 | 12.42(36) M^−1cm^−1 | 2.21(5) × 10^4 M^−1cm^−1 | 0.562(11) | 482 | 537 |  |  | does not fluoresce in the presence of Cu(I) or Cu(II), and these ions inhibit the zinc response; also recorded: Fe(II) and Fe(III) also seem to inhibit a zinc response | exhibits a fluorescence response to the toxic metals Cd, Hg, and Pb | does not respond to changes in K, Na, Ca, Mg, Mn, Co, or Ni concentration | largely unaffected by changes in pH | 4-8 pH | 
4 | CC(=O)NCCOc1ccc2n1[B-](F)(F)[N+]1=C(N(CCN(Cc3ccccn3)Cc3ccccn3)Cc3ccccn3)C=CC1=C2c1c(C)cc(C)cc1C [ZincBY-4, N-(2-((7-((2-(bis(pyridin-2-ylmethyl)amino)ethyl)(pyridin-2-ylmethyl)amino)-5,5-difluoro-10-mesityl-5H-5λ4,6λ4-dipyrrolo[1,2-c:2′,1′-f][1,3,2]diazaborinin-3-yl)oxy)ethyl)acetamide] | responds preferentially to Zn(II) relative to other biologically relevant metal ions | neither the holo or apo forms of ZincBY-1 and ZincBY-4 show significant changes in fluorescence | 1.44(7) M^−1cm^−1 | 572 | 0.88(4) × 10^4 M^−1cm^−1 |  | 585 | 12.15(34) M^−1cm^−1 | 2.12(4) × 10^4 M^−1cm^−1 |  | 482 | 537 | 8.4 | 8 fold | does not fluoresce in the presence of Cu(II) or Hg, and these ions inhibit the zinc response; also recorded: Fe(II), Fe(III), and Co also seem to inhibit the zinc response | exhibits a fluorescence response to the toxic metals Cd, and Pb | does not respond to changes in K, Na, Ca, Mg, Mn, Ni, or Cu(I) concentration | largely unaffected by changes in pH | 4-8 pH | absorption peaks ([3]; apo form): 482 nm and 570 nm; quantum yield lower compared to ZincBY-1 ([3]; apo form): 5%; quantum yield lower compared to ZincBY-1 ([3]; holo form): 10%
